The pIC50 is the IC50 on a negative log10 scale, so that one unit is a factor of ten. Low values mean a high IC50, high ones a low IC50.

SMILES strings stand for the structures. pIC50: −log10 of the molar value.

Assay [1] is described as follows: Activity against CMP-KDO synthetase-KDO-lipid A transferase (CKS-KLT) assay from Escherichia coli D21.
Assay [2] in a line: Activity against CMP-KDO synthetase (CKS) from Escherichia coli D21.
Assay [3] in a line: Activity against CMP-KDO synthetase (CKS) from Escherichia coli D21,the compound gave rise to a strongly interfering absorption in the thiobarbituric acid assay.
Assay [4] is described as follows: Activity against CMP-KDO synthetase (CKS) from Escherichia coli D21, the compound gave rise to a strongly interfering absorption in the thiobarbituric acid assay.

As to `O=C(O)[C@@H]1C[C@@H](O)[C@@H](O)[C@@H]([C@H](O)CF)O1`, the results for the pIC50 in assay [1] and in assay [2] were 5.32 and 4.62, respectively.
Regarding `N.O=C(O)[C@@H]1C[C@@H](O)[C@@H](O)[C@@H]([C@H](O)CS)O1`, the IC50 entry in assay [3] is given as “Strongly interfering absorption”. This molecule had a pIC50 in assay [1] of 4.77.
On to `NC[C@@H](O)[C@H]1O[C@H](C(=O)O)C[C@@H](O)[C@H]1O`, for which the IC50 entry in assay [3] is recorded as “Strongly interfering absorption”. In assay [1], this molecule gave a pIC50 of 5.13.
`C[C@@H](O)[C@H]1O[C@H](C(=O)O)C[C@@H](O)[C@H]1O`: the results for the negative-log IC50 (pIC50) in assay [1] and in assay [2] were 5.17 and 4.66, respectively.
On the same counts, the results for `O=C(O)[C@@H]1C[C@@H](O)[C@@H](O)[C@@H]([C@H](O)CO)O1` are 5.00 and 4.74.
With `N.[N-]=[N+]=NC[C@@H](O)[C@H]1O[C@H](C(=O)O)C[C@@H](O)[C@H]1O`, the IC50 entry in assay [4] is given as “Strongly interfering absorption”. Also, the pIC50 in assay [1] is 4.10.

(Values after ChEMBL document CHEMBL1124661, “Synthesis of 8-substituted derivatives of the 2-deoxy analogue of 3-deoxy-beta-D-manno-2-octulopyranosonic acid (2-deoxy-beta-KDO) as inhibitors of 3-deoxy-D-manno-octulosonate cytidylyltransferase” (J Med Chem, 1989).)
